For this series, the system named is human colon cancer cell strain colon 38. The series can be described thus: Anti-tumor effect with 5-fluorouracil in human cancer xenograft tumor animal model. Conditions: after 4 weeks. The class given is in vivo. From the text: According to methods described in “Methodology in Pharmacological Research of Traditional Chinese Medicine” (People's Medical Publishing House), test the anti-tumor effects of Formula A, B, C, D traditional Chinese medicine composition prepared from Embodiment 1-4 along with chemotherapy drugs (5-fluorouracil) for human cancer xenograft tumor animal model. 5-fluorouracil (fu) is broad spectrum anti-tumor medicine, it is mainly used to treat digestive tract tumor, commonly seen adverse reactions include nausea, reduced appetite or vomit, abdomen discomfort or diarrhea. About the test method, use human colon cancer cell strain colon 38 to inoculate subcutaneously in 18-23 g mouse, 14 days after the inoculation, respectively ingest Formula A, B, C, D traditional Chinese medicine composition prepared from Embodiment 1-4 into the stomach of each group of animals, the dosage is 500 mg/kg; 0.5-1 hour after stomach ingestion, inject 5-fluorouracil into abdomen, the dosage is 30 mg/kg. Execute stomach ingestion and drug injection twice each week, totaling 4 weeks.

The results in this text go back to patent US20120231097A1, “MEDICINAL COMPOSITION AND USAGE” (priority 2009, published 2012).

For `O=c1[nH]cc(F)c(=O)[nH]1` [fu, 5-fluorouracil], where the note is “formula 500 mg/kg into stomach, fu 30 mg/kg into abdomen, twice each week”, the “Average tumor weight” value is on record as 0.42 ± 0.11 g. Further, the Death number (of 10 supplied mice) is listed as 5. For the same compound, where the note is “versus CK group's average tumor weight”, the “Tumor inhibition rate (%)” value is 64%.
